{
  "source": "ChEMBL document CHEMBL3351309",
  "about": "“DNA binders in clinical trials and chemotherapy” (2014)",
  "system": "U2OS",
  "experiment": "Growth inhibition of human U2OS cells after 3 days in presence of werner syndrome helicase inhibitor NSC 19630",
  "assay_type": "functional",
  "data": [
    {"smiles": "Cc1oc2nc1-c1nc(co1)-c1nc(co1)-c1nc(co1)-c1nc(co1)-c1nc(co1)C1=NC(CS1)c1nc-2c(C)o1", "note": "(stereo unspecified) [TELOMESTATIN]", "values": [
      {"measurement": "growth inhibition (GI)", "value": 70, "unit": "%"}
    ]}
  ]
}
